Source: ChEMBL document CHEMBL1687752, “Impact of antifungal prophylaxis on colonization and azole susceptibility of Candida species” (2009)
Converted amounts (≈) assume the structure as drawn.

How the values were obtained:
Assay type in all cases: functional
Nakaseomyces glabratus [1] = assay: Antifungal activity against 25 days cultured Candida glabrata isolated from invasive fungal infected subject blood receiving antifungal therapy for 25 days after 3 days of prophylaxis by broth microdilution method
Candida albicans [2] = assay: Antifungal activity against Candida albicans isolated from HSCT recipients with acute or chronic GVHD receiving fluconazole by broth microdilution method
Nakaseomyces glabratus [3] = assay: Antifungal activity against 42 days cultured Candida glabrata isolated from neutropenic subject with AML or MDS stool after 48 days of prophylaxis by broth microdilution method
Nakaseomyces glabratus [4] = assay: Antifungal activity against 10 days cultured Candida glabrata isolated from neutropenic subject with AML or MDS stool receiving antifungal therapy for 37 days after 9 days of prophylaxis by broth microdilution method
Nakaseomyces glabratus [5] = assay: Antifungal activity against 35 days cultured Candida glabrata isolated from HSCT recipient with acute or chronic GVHD mouth receiving antifungal therapy for 165 days after 138 days of prophylaxis by broth microdilution method
Nakaseomyces glabratus [6] = assay: Antifungal activity against Candida glabrata isolated from neutropenic subject 1318 with AML or MDS stool receiving antifungal drug after 36 days prophylaxis by broth microdilution method
Nakaseomyces glabratus [7] = assay: Antifungal activity against 85 days cultured Candida glabrata isolated from HSCT recipient with acute or chronic GVHD mouth receiving antifungal therapy for 143 days after 116 days of prophylaxis by broth microdilution method
Nakaseomyces glabratus [8] = assay: Antifungal activity against 36 days cultured Candida glabrata isolated from neutropenic subject with AML or MDS pharynx after 48 days of prophylaxis by broth microdilution method
Nakaseomyces glabratus [9] = assay: Antifungal activity against 176 days cultured Candida glabrata isolated from HSCT recipient with acute or chronic GVHD mouth receiving antifungal therapy for 172 days after 114 days of prophylaxis by broth microdilution method
Pichia kudriavzevii [10] = assay: Antifungal activity against Candida krusei isolated from HSCT recipients with acute or chronic GVHD receiving fluconazole assessed as maximum MIC by broth microdilution method
Saccharomyces cerevisiae = assay: Antifungal activity against Saccharomyces cerevisiae isolated from HSCT recipient 513 with acute or chronic GVHD mouth after 112 days prophylaxis by broth microdilution method
Nakaseomyces glabratus [11] = assay: Antifungal activity against Candida glabrata isolated from HSCT recipient 474 with acute or chronic GVHD mouth after 124 days prophylaxis by broth microdilution method
Candida albicans [12] = assay: Antifungal activity against Candida albicans isolated from HSCT recipients with acute or chronic GVHD receiving posaconazole by broth microdilution method
Candida albicans [13] = assay: Antifungal activity against Candida albicans isolated from HSCT recipient 301 with acute or chronic GVHD mouth after 114 days prophylaxis by broth microdilution method
Nakaseomyces glabratus [14] = assay: Antifungal activity against Candida glabrata isolated from HSCT recipient 491 with acute or chronic GVHD mouth receiving antifungal drug after 112 days prophylaxis by broth microdilution method
Nakaseomyces glabratus [15] = assay: Antifungal activity against 23 days cultured Candida glabrata isolated from neutropenic subject with AML or MDS stool receiving antifungal therapy for 25 days after 3 days of prophylaxis by broth microdilution method
Candida albicans [16] = assay: Antifungal activity against Candida albicans isolated from HSCT recipient 042 with acute or chronic GVHD mouth receiving antifungal drug after 112 days prophylaxis by broth microdilution method
Nakaseomyces glabratus [17] = assay: Antifungal activity against 62 days cultured Candida glabrata isolated from HSCT recipient with acute or chronic GVHD mouth receiving antifungal therapy for 143 days after 116 days of prophylaxis by broth microdilution method
Nakaseomyces glabratus [18] = assay: Antifungal activity against Candida glabrata isolated from HSCT recipient 497 with acute or chronic GVHD mouth after 114 days prophylaxis by broth microdilution method
Nakaseomyces glabratus [19] = assay: Antifungal activity against 16 days cultured Candida glabrata isolated from HSCT recipient with acute or chronic GVHD mouth receiving antifungal therapy for 31 days after 28 days of prophylaxis by broth microdilution method
Nakaseomyces glabratus [20] = assay: Antifungal activity against Candida glabrata isolated from neutropenic subjects with AML or MDS receiving fluconazole assessed as maximum MIC by broth microdilution method
Candida albicans [21] = assay: Antifungal activity against Candida albicans isolated from neutropenic subjects with AML or MDS prior to initiation of posaconazole therapy assessed as maximum MIC by broth microdilution method
Nakaseomyces glabratus [22] = assay: Antifungal activity against -2 days cultured Candida glabrata isolated from HSCT recipient with acute or chronic GVHD mouth receiving antifungal therapy for 168 days after 113 days of prophylaxis by broth microdilution method
Pichia kudriavzevii [23] = assay: Antifungal activity against Candida krusei isolated from HSCT recipients with acute or chronic GVHD prior to initiation of posaconazole therapy assessed as maximum MIC by broth microdilution method
Nakaseomyces glabratus [24] = assay: Antifungal activity against Candida glabrata isolated from neutropenic subjects with AML or MDS receiving posaconazole by broth microdilution method
Nakaseomyces glabratus [25] = assay: Antifungal activity against Candida glabrata isolated from HSCT recipient 975 with acute or chronic GVHD mouth receiving antifungal drug after 112 days prophylaxis by broth microdilution method
Nakaseomyces glabratus [26] = assay: Antifungal activity against 31 days cultured Candida glabrata isolated from HSCT recipient with acute or chronic GVHD mouth receiving antifungal therapy for 31 days after 28 days of prophylaxis by broth microdilution method
Candida tropicalis [27] = assay: Antifungal activity against 2 days cultured Candida tropicalis isolated from neutropenic subject with AML or MDS stool receiving antifungal therapy for 45 days after 24 days of prophylaxis by broth microdilution method
Nakaseomyces glabratus [28] = assay: Antifungal activity against 56 days cultured Candida glabrata isolated from HSCT recipient with acute or chronic GVHD mouth receiving antifungal therapy for 172 days after 114 days of prophylaxis by broth microdilution method
Pichia kudriavzevii [29] = assay: Antifungal activity against 6 days cultured Candida krusei isolated from neutropenic subject with AML or MDS stool receiving antifungal therapy for 19 days after 6 days of prophylaxis by broth microdilution method
Nakaseomyces glabratus [30] = assay: Antifungal activity against 43 days cultured Candida glabrata isolated from HSCT recipient with acute or chronic GVHD mouth receiving antifungal therapy for 172 days after 114 days of prophylaxis by broth microdilution method
Candida albicans [31] = assay: Antifungal activity against Candida albicans isolated from HSCT recipient 262 with acute or chronic GVHD mouth receiving antifungal drug after 115 days prophylaxis by broth microdilution method
Nakaseomyces glabratus [32] = assay: Antifungal activity against 29 days cultured Candida glabrata isolated from neutropenic subject with AML or MDS stool after 48 days of prophylaxis by broth microdilution method
Candida tropicalis [33] = assay: Antifungal activity against 2 days cultured Candida tropicalis isolated from neutropenic subject with AML or MDS pharynx receiving antifungal therapy for 45 days after 24 days of prophylaxis by broth microdilution method
Nakaseomyces glabratus [34] = assay: Antifungal activity against Candida glabrata isolated from HSCT recipients with acute or chronic GVHD prior to initiation of fluconazole therapy assessed as maximum MIC by broth microdilution method
Nakaseomyces glabratus [35] = assay: Antifungal activity against 12 days cultured Candida glabrata isolated from HSCT recipient with acute or chronic GVHD mouth receiving antifungal therapy for 143 days after 116 days of prophylaxis by broth microdilution method
Pichia kudriavzevii [36] = assay: Antifungal activity against 14 days cultured Candida krusei isolated from neutropenic subject with AML or MDS pharynx after 12 days of prophylaxis by broth microdilution method
Pichia kudriavzevii [37] = assay: Antifungal activity against 16 days cultured Candida krusei isolated from neutropenic subject with AML or MDS pharynx receiving antifungal therapy for 19 days after 6 days of prophylaxis by broth microdilution method

## CC[C@@H]([C@H](C)O)n1ncn(-c2ccc(N3CCN(c4ccc(OC[C@@H]5CO[C@@](Cn6cncn6)(c6ccc(F)cc6F)C5)cc4)CC3)cc2)c1=O [POSACONAZOLE]
Nakaseomyces glabratus [1]
  MIC: 0.5 mg/L (≈ 0.713 µM)
Candida albicans [2]
  MIC50: 0.03 mg/L (≈ 0.0428 µM)
  MIC90: 16 mg/L (≈ 22.8 µM)
Nakaseomyces glabratus [3]
  MIC: 1 mg/L (≈ 1.43 µM)
Nakaseomyces glabratus [4]
  MIC: 1 mg/L (≈ 1.43 µM)
Nakaseomyces glabratus [5]
  MIC: 4 mg/L (≈ 5.71 µM)
Nakaseomyces glabratus [6]
  MIC: 8 mg/L (≈ 11.4 µM)
Nakaseomyces glabratus [7]
  MIC: 4 mg/L (≈ 5.71 µM)
Nakaseomyces glabratus [8]
  MIC: 1 mg/L (≈ 1.43 µM)
Nakaseomyces glabratus [9]
  MIC: 2 mg/L (≈ 2.85 µM)
Pichia kudriavzevii [10]
  MIC: 1 mg/L
Saccharomyces cerevisiae
  MIC: 1 mg/L (≈ 1.43 µM)
Nakaseomyces glabratus [11]
  MIC: 0.25 mg/L (≈ 0.357 µM)
Candida albicans [12]
  MIC50: 0.03 mg/L (≈ 0.0428 µM)
  MIC90: 0.12 mg/L (≈ 0.171 µM)
Candida albicans [13]
  MIC: < 0.015 mg/L
Nakaseomyces glabratus [14]
  MIC: 2 mg/L (≈ 2.85 µM)
Nakaseomyces glabratus [15]
  MIC: 0.125 mg/L (≈ 0.178 µM)
Candida albicans [16]
  MIC: < 0.015 mg/L
Nakaseomyces glabratus [17]
  MIC: 4 mg/L (≈ 5.71 µM)
Nakaseomyces glabratus [18]
  MIC: 0.5 mg/L (≈ 0.713 µM)
Nakaseomyces glabratus [19]
  MIC: < 0.5 mg/L
Nakaseomyces glabratus [20]
  MIC: 2 mg/L
Candida albicans [21]
  MIC: 0.06 mg/L
Nakaseomyces glabratus [22]
  MIC: 1 mg/L (≈ 1.43 µM)
Pichia kudriavzevii [23]
  MIC: 0.5 mg/L
Nakaseomyces glabratus [24]
  MIC50: 0.5 mg/L (≈ 0.713 µM)
  MIC90: 4 mg/L (≈ 5.71 µM)
Nakaseomyces glabratus [25]
  MIC: 4 mg/L (≈ 5.71 µM)
Nakaseomyces glabratus [26]
  MIC: < 0.5 mg/L
Candida tropicalis [27]
  MIC: < 0.015 mg/L
Nakaseomyces glabratus [28]
  MIC: 0.25 mg/L (≈ 0.357 µM)
Pichia kudriavzevii [29]
  MIC: 0.125 mg/L (≈ 0.178 µM)
Nakaseomyces glabratus [30]
  MIC: 1 mg/L (≈ 1.43 µM)
Candida albicans [31]
  MIC: < 0.015 mg/L
Nakaseomyces glabratus [32]
  MIC: 1 mg/L (≈ 1.43 µM)
Candida tropicalis [33]
  MIC: < 0.015 mg/L
Nakaseomyces glabratus [34]
  MIC: 16 mg/L
Nakaseomyces glabratus [35]
  MIC: 2 mg/L (≈ 2.85 µM)
Pichia kudriavzevii [36]
  MIC: 0.125 mg/L (≈ 0.178 µM)
Pichia kudriavzevii [37]
  MIC: 0.25 mg/L (≈ 0.357 µM)
